Measured values: US6620853B1, “Methods and compositions for prevention and treatment of restenosis with non-steroidal anti-inflammatory drugs” (Mount Sinai School of Medicine, priority 1998, dated 2003)

Tests used:
ApoE-deficient mice = assay: Atherosclerotic lesions and plasma cholesterol in ApoE-deficient mice on western diet; format: in vivo, mouse; details: ApoE-deficient mice maintained on a western diet
Source text: The Apo-E deficient mouse is the first mouse model of atherosclerosis with pathology similar to that of human atherosclerosis (Cell 1992, 71:343-353). Serum cholesterol levels in the mice maintained on a chow diet are five times higher than those of control littermates. Apo-E, which is made primarily in the liver, is a surface constituent of lipoprotein particles and a ligand for lipoprotein recognition and clearance by lipoprotein receptors (Science 1996, 272:685-688). ApoE-deficient mice have delayed clearance of lipoproteins, and on a low-cholesterol, low-fat diet, their cholesterol levels reach 400 to 600 mg/dl as a result of accumulation of chylomicron and very low-density lipoprotein (VLDL) remnants enriched in esterified and free cholesterol (Circulation 1993, 88:A9). These mice develop not only fatty streaks but also widespread fibrous plaque lesions at vascular sites typically affected in human atherosclerosis (Arterioscier. Thromb. 1994, 14;1873). Lesions form at the base of the aorta and the lesser curvature of the thoracic aorta, at the branch points of the carotid, intercostal, mesenteric, renal and iliac arteries, and in the proximal coronary, carotid, femoral, subclavian, and brachiocephalic arteries. Lesions begin at 5 to 6 weeks of age with monocyte attachment to the endothelium in lesion-prone areas and transendothelial migration. Fatty streak lesions begin to appear at 10 weeks, and intermediate lesions containing foam cells and spindle-shaped smooth muscle cells appear at 15 weeks. Fibrous plaques appear after 20 weeks and consist of a necrotic core covered by a fibrous cap of smooth muscle cells surrounded by elastic fibers and collagen. In older mice, fibrous plaques progress. In some advanced lesions there is partial destruction of underlying medial cells with occasional aneurysm formation, and in others calcification occurs in the fibrous tissue. Extensive fibro-proliferation can narrow the lumen, even to the point of occlusion of vessels.
Atherosclerosis can be exacerbated by a high-cholesterol or high-fat diet. This effect is mimicked in the ApoE-deficient mice when these mice are fed a western-type diet as described below in Section 6.
The Apolipoprotein E knock-out mouse model is a valuable animal model to test the effect of NSAIDs on apoptosis, proliferation, quiescence, migration and differentiation of cells that contribute to atherosclerosis. ApoE is an apoprotein on the surface of atherogenic lipoproteins that serves as a ligand for certain receptors in key tissues. ApoE-induced signaling via these receptors, particularly by the hepatic LDL receptor, induces the removal of ApoE-containing lipoprotein particles from the plasma. […]

[1] = test system: HT-29 human colon adenocarcinoma cells; details: cited from earlier work
ApoE-knockout mice = format: in vivo, mouse; details: Western Diet with Sulindac (300 mg/kg) for 17 weeks, examined four weeks after injury; vs control group
Source text: We have developed a new mouse model of studying restenosis, in which the injury of the femoral artery is accomplished by the manipulation of wire stent which is introduced into the femoral artery first and then removed.
Briefly, the mouse is anesthetized with pentobarbital and the femoral artery is exposed by cutting the skin in the femoral region carefully. An angioplastz guide wire obtained from Advanced Cardiovascular Systems, Tameaila, Calif. of approximately 100 mm in length and 0.25 mm in diameter is then carefully inserted into the femoral artery, gently manipulated to simulate the arterial revascularization procedures used in humans, and removed. The bleeding is stopped by ligation. The skin fold is restored by sutures.
By one month after injury maximum restenosis is measured is achieved. The degree of restenosis is measured by two indices, the intima/media (I/M) ratio and the percentage of lumenal narrowing. […]
Thirty six week old ApoE-knockout mice were used and given the following dietary regimen and treatment: Group 1-western type diet (containing 42% by calories % fat and 0.15% (w/w) cholesterol); Group 2-western type diet plus aspirin at a concentration of 300 mg/kg diet/day and Group 3-western type diet plus Sulindac at a concentration of 300 mg/kg diet/day. […] The body weight was monitored on a weekly basis. […]

[2] = test system: HCT-15 cultured colon cancer cell line; details: Biochem. Pharmacol. 1996, 52:237-245; cited from earlier work
cyclooxygenase = details: Adv. Drug Res. 1977, 12:90-245; cited from earlier work

SMILES	development of atherosclerotic lesion / atherosclerotic index (ApoE-deficient mice)	level of cholesterol in the plasma (ApoE-deficient mice)	morphology of HT-29 cells [1]	proliferation of HT-29 cells [1]	arterial narrowing after mechanical arterial injury (ApoE-knockout mice)	smooth muscle cell proliferation after mechanical arterial injury (ApoE-knockout mice)	antiproliferative effect [2]	inhibition of cyclooxygenase (cyclooxygenase)
CC1=C(CC(=O)O)c2cc(F)ccc2/C1=C\c1ccc([S+](C)[O-])cc1 (stereo not drawn) [Sulindac]	significantly inhibited	reduced the level of cholesterol in the plasma	altered morphology	reduced proliferation	narrowing of the artery was not as marked	much less proliferation of smooth muscle cells	antiproliferative effect independent of prostaglandin synthesis	–
CC(=O)Oc1ccccc1C(=O)O [aspirin]	inhibited the atherosclerotic index but to a lesser extent than observed in the group treated with Sulindac	reduced the level of cholesterol in the plasma	altered morphology	reduced proliferation	–	–	–	–
COc1ccc2c(c1)c(CC(=O)O)c(C)n2C(=O)c1ccc(Cl)cc1 [indomethacin]	–	–	altered morphology	reduced proliferation	–	–	–	–
CN1C(C(=O)Nc2ccccn2)=C(O)c2ccccc2S1(=O)=O [piroxicam]	–	–	altered morphology	reduced proliferation	–	–	antiproliferative effect independent of prostaglandin synthesis	–
CSc1ccc(/C=C2/C(C)=C(CC(=O)O)c3cc(F)ccc32)cc1 [sulfide, Sulindac sulfide]	–	–	–	–	–	–	–	potent inhibitory agent of cyclooxygenase
CC1=C(CC(=O)O)c2cc(F)ccc2/C1=C\c1ccc(S(C)(=O)=O)cc1 [sulfone, Sulindac sulfone]	–	–	–	–	–	–	–	does not inhibit cyclooxygenase
